Like-named read-outs stand apart in the source and are kept apart here.

This test has as its system M. mycetomatis genome strain MM55. Nature of the test: CLSI M38-A2 based in vitro susceptibility screening (XTT or resazurin), growth at fixed concentration. It is filed as cell-based, Madurella mycetomatis. The settings on record: Madurella mycetomatis; for Percent fungal survival at 100 µM: read-out: Percentage survival at 100um, 100 uM A (second replicate column). For orientation: Tetrazolium assays rely on reduction of a dye to a coloured formazan, in cell work by metabolically active cells.

The mark [1] stands for this setting: mean of three replicates, read-out: Percentage survival at 25um, 25 uM mean.
Where [2] appears, read: replicate A, read-out: Percentage survival at 25um, 25 um A.
Where [3] appears, read: replicate B, read-out: Percentage survival at 25um, 25 uM B.
Setting [4] is: replicate C, read-out: Percentage survival at 25um, 25 uM C.
Setting [5] is: first replicate column, read-out: Percentage survival at 100um, 100 uM A.
Setting [6] is: mean of three replicates, read-out: Percentage survival at 100um, 100 uM mean.
The mark [7] stands for this setting: second replicate column, read-out: Percentage survival at 100um, 100 uM A.
Where [8] appears, read: third replicate column, read-out: Percentage survival at 100um, 100 uM A.
Setting [9] is: mean, read-out: Percentage survival at 25um, 25 uM mean.
Where [10] appears, read: mean, read-out: Percentage survival at 100um, 100 uM mean.
Setting [11] is: replicate (first column), read-out: Percentage survival at 100um, 100 uM A.
Setting [12] is: replicate (second column), read-out: Percentage survival at 100um, 100 uM A.
Setting [13] is: replicate (third column), read-out: Percentage survival at 100um, 100 uM A.
The mark [14] stands for this setting: replicate 1, read-out: Percentage survival at 100um, 100 uM A (first replicate column).
Setting [15] is: replicate 3, read-out: Percentage survival at 100um, 100 uM A (third replicate column).
Where [16] appears, read: mean of replicates, MM55, read-out: Percentage survival at 25um, 25 uM mean.
Setting [17] is: replicate A, MM55, read-out: Percentage survival at 25um, 25 um A.
Setting [18] is: replicate B, MM55, read-out: Percentage survival at 25um, 25 uM B.
Where [19] appears, read: replicate C, MM55, read-out: Percentage survival at 25um, 25 uM C.
Setting [20] is: mean of replicates, MM55, read-out: Percentage survival at 100um, 100 uM mean.
Where [21] appears, read: replicate 1, MM55, read-out: Percentage survival at 100um, 100 uM A.
Setting [22] is: replicate 2, MM55, read-out: Percentage survival at 100um, 100 uM A.
Where [23] appears, read: replicate 3, MM55, read-out: Percentage survival at 100um, 100 uM A.

Consider `CCOC(=O)/C=C/[C@H](C[C@@H]1CCNC1=O)NC(=O)[C@H](CC)n1cccc(NC(=O)c2cc(C)on2)c1=O` [MMV1782112], for which the activity at 25 µM stood at 92.1% under setting [1], 76.9% under setting [2], 89.6% under setting [3] and 110% under setting [4]. The activity at 100 µM was determined as 81.9% under setting [5], 68.4% under setting [6], 76.6% under setting [7] and 46.5% under setting [8].

In the case of `O=S(=O)(NCB(O)O)c1cc2c(Cl)ccc(Cl)c2s1` [MMV1580841], the activity at 25 µM by setting is: under setting [9], 69.4%; under setting [2], 79.1%; under setting [3], 74.7%; under setting [4], 54.3%. The activity at 100 µM is, setting by setting: under setting [10], 70.2%; under setting [11], 88.2%; under setting [12], 69.4%; under setting [13], 53%.

Take `CC#C[C@]1(O)CC[C@H]2[C@@H]3CCC4=CC(=O)CCC4=C3[C@@H](c3ccc(N(C)C)cc3)C[C@@]21C` [MMV003297]: the activity at 25 µM reads like this: under setting [1], 87.2%; under setting [2], 90.2%; under setting [3], 94.9%; under setting [4], 76.5%. For the same molecule, the activity at 100 µM by setting is: under setting [5], 84.5%; under setting [6], 80.3%; under setting [7], 82.6%; under setting [8], 73.8%.

As for `Cc1ccn2c(C(=O)NCc3ccccc3)c(C)nc2c1` [MMV1579847], the activity at 25 µM came to 82.9% under setting [1], 90.2% under setting [2], 66.1% under setting [3] and 92.5% under setting [4]. Moreover, the activity at 100 µM was 61.9% under setting [6], 72.5% under setting [14] and 57.5% under setting [15]. The Percent fungal survival at 100 µM (replicate 2) worked out at 55.8%.

As to `O=C(NC1CCCc2c1[nH]c1ccc(Cl)cc21)c1ccccn1` (centres unmarked) [MMV690621], the activity at 25 µM runs as follows: under setting [1], 79%; under setting [2], 75.2%; under setting [3], 91.8%; under setting [4], 70.2%. Besides, the activity at 100 µM was -4.95% under setting [5], -0.446% under setting [6], -2.06% under setting [7] and 5.67% under setting [8].

On to `CCCNc1ccc(S(=O)(=O)Nc2cc(C)on2)cc1` [MMV1782216], for which the activity at 25 µM was 75.9% under setting [9], 81.9% under setting [2], 68.5% under setting [3] and 77.2% under setting [4]. In addition, the activity at 100 µM under setting [10] came out at 87.1%, the activity at 100 µM under setting [11] was determined as 83.4%, the activity at 100 µM under setting [12] amounted to 74.1% and the activity at 100 µM under setting [13] stood at 104%.

Consider `C[C@H](NC(=O)C(=O)Nc1ccccc1C(C)(C)C)C(=O)N[C@@H](CC(=O)O)C(=O)COc1c(F)c(F)cc(F)c1F` [MMV1580794], for which the activity at 25 µM runs as follows: under setting [1], 43.5%; under setting [2], 71.1%; under setting [3], -10.5%; under setting [4], 70%. Further, the activity at 100 µM was determined as 70.9% under setting [6], 64.2% under setting [14] and 87.8% under setting [15]. Under “replicate 2”, the Percent fungal survival at 100 µM turned out to be 60.7%.

In the case of `COc1cc(C(C(=O)NC2CCCCC2)N(C(=O)Cc2c[nH]c3ccccc23)c2ccc(C(C)C)cc2)cc(OC)c1OC` (centres unmarked) [MMV1593544], the activity at 25 µM reads like this: under setting [16], 98.2%; under setting [17], 107%; under setting [18], 106%; under setting [19], 81.3%. The activity at 100 µM by setting is: under setting [20], 88.5%; under setting [21], 98%; under setting [22], 88.7%; under setting [23], 78.7%.

With `O=C1NC(=O)C(Br)=C1Br` [MMV1578554], the activity at 25 µM (mean of replicates, read-out: Percentage survival at 25um, 25 uM mean) was 76.9%; the activity at 25 µM under setting [2] was 80.1%; the activity at 25 µM under setting [3] stood at 86.3%; the activity at 25 µM under setting [4] was determined as 64.3%. In addition, the activity at 100 µM was 43.3% (mean of replicates, read-out: Percentage survival at 100um, 100 uM mean); -3.69% (replicate 1, read-out: Percentage survival at 100um, 100 uM A); 60.2% (replicate 2, read-out: Percentage survival at 100um, 100 uM A); 73.5% (replicate 3, read-out: Percentage survival at 100um, 100 uM A).

In the case of `Nc1nc(O)c2ncn(COCCO)c2n1` [MMV001961], the activity at 25 µM under setting [1] stood at 90.3%, the activity at 25 µM under setting [2] amounted to 88.7%, the activity at 25 µM under setting [3] was found to be 94.5% and the activity at 25 µM under setting [4] was found to be 87.8%. For the same molecule, the activity at 100 µM is, setting by setting: under setting [5], 88.4%; under setting [6], 84.1%; under setting [7], 78.9%; under setting [8], 85%.

Turning to `O=C(CSc1nnc(Br)n1-c1ccc(C2CC2)c2ccccc12)Nc1ccc(C(=O)O)cc1Cl` [MMV1782213], the activity at 25 µM runs as follows: under setting [16], 81%; under setting [17], 93.7%; under setting [18], 82%; under setting [19], 67.3%. Besides, the activity at 100 µM amounted to 74.5% under setting [20], 63.5% under setting [21], 115% under setting [22] and 45.2% under setting [23].

`O=C(CC1Sc2ncnn2C1=O)Nc1ccc(Br)cc1` (centres unmarked) [MMV214956]: the activity at 25 µM was 63.2% under setting [1], 56.2% under setting [2], 60% under setting [3] and 73.5% under setting [4]. The activity at 100 µM runs as follows: under setting [6], -1.13%; under setting [14], -7.27%; under setting [15], 3.91%. Besides, for the setting “replicate 2”, the Percent fungal survival at 100 µM is -0.0182%.

`NC(=O)c1c(N)sc2c1CCCCC2` [MMV056052]: the activity at 25 µM is, setting by setting: under setting [1], 95.4%; under setting [2], 93.9%; under setting [3], 104%; under setting [4], 87.9%. Moreover, the activity at 100 µM is 84.7% under setting [6], 86.2% under setting [14] and 87.9% under setting [15]. Also, the Percent fungal survival at 100 µM (replicate 2) was 80.1%.

Consider `CC(C)(C)NC(=O)[C@@H]1C[C@@H]2CCCC[C@@H]2CN1C[C@@H](O)[C@H](Cc1ccccc1)NC(=O)[C@H](CC(N)=O)NC(=O)c1ccc2ccccc2n1` [MMV637879], for which the activity at 25 µM by setting is: under setting [1], 92.5%; under setting [2], 98.2%; under setting [3], 97.6%; under setting [4], 81.5%. Further, the activity at 100 µM came out at 102% under setting [5], 93.3% under setting [6], 95.3% under setting [7] and 82.8% under setting [8].

`CSC[C@H]1CN(Cc2c[nH]c3c(N)ncnc23)C[C@@H]1O` [MMV1578565]: the activity at 25 µM by setting is: (mean of three, M. mycetomatis MM55, read-out: Percentage survival at 25um, 25 uM mean) 80.1%; (replicate A, M. mycetomatis MM55, read-out: Percentage survival at 25um, 25 um A) 86.7%; (replicate B, M. mycetomatis MM55, read-out: Percentage survival at 25um, 25 uM B) 77.5%; (replicate C, M. mycetomatis MM55, read-out: Percentage survival at 25um, 25 uM C) 76%. The activity at 100 µM runs as follows: (mean of three, M. mycetomatis MM55, read-out: Percentage survival at 100um, 100 uM mean) 87.9%; (replicate 1, M. mycetomatis MM55, read-out: Percentage survival at 100um, 100 uM A (first replicate column)) 88.9%; (replicate 3, M. mycetomatis MM55, read-out: Percentage survival at 100um, 100 uM A (third replicate column)) 91.9%. Moreover, the Percent fungal survival at 100 µM (replicate 2, M. mycetomatis MM55) was 83%.

For `Oc1cc(-c2cccc3ccccc23)[nH]n1` [MMV422940], the activity at 25 µM came out at 79.9% under setting [9], 89.3% under setting [2], 79.4% under setting [3] and 70.9% under setting [4]. Besides, the activity at 100 µM turned out to be 81.4% under setting [10], 88.2% under setting [11], 73.6% under setting [12] and 82.2% under setting [13].

These data come from publication PMC8815882, “Screening the pandemic response box identified benzimidazole carbamates, Olorofim and ravuconazole as promising drug candidates for the treatment of eumycetoma” (PLoS Neglected Tropical Diseases, 2022).
